Reference: patent US8071612B2, “6-alkenyl and 6-phenylalkyl substituted 2-quinolinones and 2-quinoxalinones as poly(ADP-ribose) polymerase inhibitors” (Janssen Pharmaceutica, NV, priority 2004, dated 2011)

Biological target: T1, PARP-1 enzyme (Homo sapiens, UniProt P09874)
T1 construct: made in house
Assay: In vitro Scintillation Proximity Assay (SPA) for PARP-1 inhibitory activity
Format: biochemical
Details: nicked DNA activated PARP-1, [3H]-NAD+, biotinylated histones; read-out: In vitro SPA pIC50 (converted)
Description: Compounds of the present invention were tested in an in vitro assay based on SPA technology (proprietary to Amersham Pharmacia Biotech).
In principle, the assay relies upon the well established SPA technology for the detection of poly(ADP-ribosyl)ation of biotinylated target proteins, i.e histones. This ribosylation is induced using nicked DNA activated PARP-1 enzyme and [^3H]-nicotinamide adenine dinucleotide ([^3H]-NAD^+) as ADP-ribosyl donor.
As inducer of PARP-1 enzyme activity, nicked DNA was prepared. For this, 25 mg of DNA (supplier: Sigma) was dissolved in 25 ml DNAse buffer (10 mM Tris-HCl, pH 7.4; 0.5 mg/ml Bovine Serum Albumine (BSA); 5 mM MgCl2.6H2O and 1 mM KCl) to which 50 μl DNAse solution (1 mg/ml in 0.15 M NaCl) was added. After an incubation of 90 min. at 37° C., the reaction was terminated by adding 1.45 g NaCl, followed by a further incubation at 58° C. for 15 min. The reaction mixture was cooled on ice and dialysed at 4° C. for respectively 1.5 and 2 hours against 1.5 l of 0.2 M KCl, and twice against 1.5 l of 0.01 M KCl for 1.5 and 2 h respectively. The mixture was aliquoted and stored at −20° C. Histones (1 mg/ml, type II-A, supplier: Sigma) were biotinylated using the biotinylation kit of Amersham and stored aliquoted at −20° C. A stock solution of 100 mg/ml SPA poly(vinyl toluene) (PVT) beads (supplier: Amersham) was made in PBS. A stock solution of [^3]H-NAD^+ was made by adding 120 μl of [^3H]-NAD^+ (0.1 mCi/ml, supplier: NEN) to 6 ml incubation buffer (50 mM Tris/HCl, pH 8; 0.2 mM DTT; 4 mM MgCl2). A solution of 4 mM NAD^+ (supplier: Roche) was made in incubation buffer (from a 100 mM stock solution in water stored at −20° C.). The PARP-1 enzyme was produced using art known techniques, i.e. cloning and expression of the protein starting from human liver cDNA. Information concerning the used protein sequence of the PARP-1 enzyme including literature references can be found in the Swiss-Prot database under primary accession number P09874. Biotinylated histones and PVT-SPA beads were mixed and pre-incubated for 30 min. at room temperature. PARP-1 enzyme (concentration was lot dependent) was mixed with the nicked DNA and the mixture was pre-incubated for 30 min. at 4° C. Equal parts of this histones/PVT-SPA beads solution and PARP-1 enzyme/DNA solution were mixed and 75 μl of this mixture together with 1 μl of compound in DMSO and 25 μl of [^3H]-NAD^+ was added per well into a 96-well microtiterplate. The final concentrations in the incubation mixture were 2 μg/ml for the biotinylated histones, 2 mg/ml for the PVT-SPA beads, 2 μg/ml for the nicked DNA and between 5-10 μg/ml for the PARP-1 enzyme. After incubation of the mixture for 15 min. at room temperature, the reaction was terminated by adding 100 μl of 4 mM NAD^+ in incubation buffer (final concentration 2 mM) and plates were mixed.
The beads were allowed to sediment for at least 15 min. and plates transferred to a TopCountNXT™ (Packard) for scintillation counting, values were expressed as counts per minute (cpm). For each experiment, controls (containing PARP-1 enzyme and DMSO without compound), a blank incubation (containing DMSO but no PARP-1 enzyme or compound) and samples (containing PARP-1 enzyme and compound dissolved in DMSO) were run in parallel. All compounds tested were dissolved and eventually further diluted in DMSO. In first instance, compounds were tested at a concentration of 10^−5 M or 10^−6M. […] In each test, the blank value was subtracted from both the control and the sample values. The control sample represented maximal PARP-1 enzyme activity. For each sample, the amount of cpm was expressed as a percentage of the mean cpm value of the controls. When appropriate, IC50-values (concentration of the drug, needed to reduce the PARP-1 enzyme activity to 50% of the control) were computed using linear interpolation between the experimental points just above and below the 50% level. […]

T1 sequence (P09874 whole entry): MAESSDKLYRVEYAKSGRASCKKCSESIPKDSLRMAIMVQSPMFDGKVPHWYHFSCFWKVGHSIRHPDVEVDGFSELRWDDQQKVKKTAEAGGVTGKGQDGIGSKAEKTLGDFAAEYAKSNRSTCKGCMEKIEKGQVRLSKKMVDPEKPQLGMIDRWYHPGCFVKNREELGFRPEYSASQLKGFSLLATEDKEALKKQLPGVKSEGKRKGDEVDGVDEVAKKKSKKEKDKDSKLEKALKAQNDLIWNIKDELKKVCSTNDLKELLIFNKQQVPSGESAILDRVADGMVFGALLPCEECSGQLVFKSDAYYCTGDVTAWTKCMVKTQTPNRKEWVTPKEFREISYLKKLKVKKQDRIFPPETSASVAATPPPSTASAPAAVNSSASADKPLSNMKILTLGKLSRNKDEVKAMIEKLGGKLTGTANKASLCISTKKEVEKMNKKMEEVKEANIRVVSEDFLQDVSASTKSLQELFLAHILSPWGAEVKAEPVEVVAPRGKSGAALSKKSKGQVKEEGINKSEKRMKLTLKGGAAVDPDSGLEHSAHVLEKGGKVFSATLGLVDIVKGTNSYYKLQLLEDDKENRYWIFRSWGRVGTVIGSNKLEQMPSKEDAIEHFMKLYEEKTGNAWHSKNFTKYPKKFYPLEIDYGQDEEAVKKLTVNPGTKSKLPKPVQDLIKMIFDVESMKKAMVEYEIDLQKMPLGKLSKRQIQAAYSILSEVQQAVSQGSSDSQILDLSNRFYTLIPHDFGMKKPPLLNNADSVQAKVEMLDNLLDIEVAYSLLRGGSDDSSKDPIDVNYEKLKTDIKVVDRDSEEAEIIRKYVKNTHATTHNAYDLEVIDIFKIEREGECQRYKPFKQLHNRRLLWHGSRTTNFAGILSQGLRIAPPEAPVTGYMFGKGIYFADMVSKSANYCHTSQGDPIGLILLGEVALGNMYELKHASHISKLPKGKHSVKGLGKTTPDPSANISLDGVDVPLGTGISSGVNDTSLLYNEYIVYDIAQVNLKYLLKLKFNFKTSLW

Row | Structure (SMILES) | IC50 [nM]
1 | Cc1cc2cc(C(NC(=O)NCCCN3CCCCC3)c3ccccc3)ccc2[nH]c1=O (centres unmarked) [Compound 7] | 1430
2 | Cc1cc2cc(C(c3ccccc3)c3cncn3C)ccc2[nH]c1=O (centres unmarked) [Compound 10] | 711
3 | CCc1cc2cc(C(c3ccccc3)N3CCC(NCCOC)CC3)ccc2[nH]c1=O (centres unmarked) [Compound 13] | 220
4 | Cc1cc2cc(C(NCCCc3cccs3)c3ccccc3)ccc2[nH]c1=O (centres unmarked) [Compound 23] | 1410
5 | Cc1cc2cc(C(NCCCn3cccc3)c3ccccc3)ccc2[nH]c1=O (centres unmarked) [Compound 24] | 2720
6 | CC(=O)NCCNC(c1ccccc1)c1ccc2[nH]c(=O)c(C)cc2c1 (centres unmarked) [Compound 25] | 498
7 | CCc1cc2cc(C(NCCCN3CCCCC3)c3ccccc3)ccc2[nH]c1=O (centres unmarked) [Compound 26] | 119
8 | CCc1cc2cc(C(c3ccc(Cl)c(F)c3)N3CCC(NCCOC)CC3)ccc2[nH]c1=O (centres unmarked) [Compound 63] | 361
9 | CCc1cc2cc(C(c3ccc(C)cc3C)N3CCC(NCCOC)CC3)ccc2[nH]c1=O (centres unmarked) [Compound 64] | 532
10 | CCc1cc2cc(C(c3ccc(N(C)C)cc3)N3CCC(NCCOC)CC3)ccc2[nH]c1=O (centres unmarked) [Compound 65] | 292
11 | CCc1cc2cc(C(c3ccc(Cl)cc3Cl)N3CCC(NCCOC)CC3)ccc2[nH]c1=O (centres unmarked) [Compound 66] | 417
12 | CCc1cc2cc(C(c3ccc(F)cc3)N3CCC(NCCOC)CC3)ccc2[nH]c1=O (centres unmarked) [Compound 67] | 208
13 | CCc1cc2cc(C(c3ccc(F)cc3F)N3CCC(NCCOC)CC3)ccc2[nH]c1=O (centres unmarked) [Compound 68] | 373
14 | CCc1cc2cc(C(c3cc(C(F)(F)F)ccc3Cl)N3CCC(NCCOC)CC3)ccc2[nH]c1=O (centres unmarked) [Compound 69] | 456
15 | CCc1cc2cc(C(c3ccc(C(F)(F)F)cc3)N3CCC(NCCOC)CC3)ccc2[nH]c1=O (centres unmarked) [Compound 70] | 762
16 | CCc1cc2cc(C(OCCN(C)C)c3cccc(Cl)c3)ccc2[nH]c1=O (centres unmarked) [Compound 71] | 177
17 | CCc1cc2cc(C(c3c(Cl)cccc3Cl)N3CCC(NCCOC)CC3)ccc2[nH]c1=O (centres unmarked) [Compound 73] | 124
18 | CCc1cc2cc(C(c3ccccc3Cl)N3CCC(NCCOC)CC3)ccc2[nH]c1=O (centres unmarked) [Compound 74] | 211
19 | CCc1cc2cc(C(c3cccc(Cl)c3)N3CCN(C)CC3)ccc2[nH]c1=O (centres unmarked) [Compound 75] | 339
20 | CCc1cc2cc(C(c3cccc4ccccc34)N3CCC(NCCOC)CC3)ccc2[nH]c1=O (centres unmarked) [Compound 76] | 411
21 | CCc1cc2cc(C(c3ccccc3C)N3CCC(NCCOC)CC3)ccc2[nH]c1=O (centres unmarked) [Compound 82] | 356
22 | CCc1cc2cc(C(c3ccc(Cl)c(Cl)c3)N3CCC(NCCOC)CC3)ccc2[nH]c1=O (centres unmarked) [Compound 83] | 498
23 | CCc1nc2cc(C(c3ccccc3)N3CCC(=O)CC3)ccc2[nH]c1=O (centres unmarked) [Compound 84] | 318
24 | CCc1cc2cc(C(CCN(C)C)c3ccc4c(c3)OCCO4)ccc2[nH]c1=O (centres unmarked) [Compound 90] | 8.43
25 | O=CNC(c1cccc(C(F)(F)F)c1)c1ccc2[nH]c(=O)c3ccccc3c2c1 (centres unmarked) [Compound 97] | 31

Continued, values first:

Row | IC50 [nM] | Structure (SMILES)
26 | 406 | CCc1nc2cc(CC(O)c3ccccc3)ccc2[nH]c1=O (centres unmarked) [Compound 108]
27 | 564 | CCc1nc2cc(CC(=O)c3ccccc3)ccc2[nH]c1=O [Compound 116]
28 | 710 | CCc1nc2cc(CC(c3ccc(Cl)cc3)N3CCN(C4CCCCC4)CC3)ccc2[nH]c1=O (centres unmarked) [Compound 117]
29 | 869 | CCc1nc2cc(CCC(c3ccc(Cl)cc3)n3ccnc3)ccc2[nH]c1=O (centres unmarked) [Compound 118]
30 | 198 | CCc1nc2cc(CC(c3ccccc3)n3ccnc3)ccc2[nH]c1=O (centres unmarked) [Compound 119]
31 | 553 | CCc1nc2ccc(CC(c3ccc(Cl)cc3)N3CCC(C(N)=O)CC3)cc2[nH]c1=O (centres unmarked) [Compound 120]
32 | 830 | CCc1nc2cc(CC(c3ccc(Cl)cc3)N3CCC(O)(c4ccccc4)CC3)ccc2[nH]c1=O (centres unmarked) [Compound 121]
33 | 57.1 | CCc1cc2cc(/C(=C/CN3CCCCC3)c3ccc4c(c3)OCCO4)ccc2[nH]c1=O [Compound 129]
34 | 188 | CCc1cc2cc(/C(=C\CN3CCCCC3)c3ccc4c(c3)OCCO4)ccc2[nH]c1=O [Compound 130]
35 | 137 | CCc1cc2cc(/C(=C\CN(C)C)c3ccc4c(c3)OCCO4)ccc2[nH]c1=O [Compound 136]
36 | 428 | CCc1cc2cc(/C(=C\CN(C)C)c3ccc(Cl)cc3)ccc2[nH]c1=O [Compound 137]
37 | 63 | CCc1cc2cc(/C(=C/CN(C)C)c3ccc4c(c3)OCCO4)ccc2[nH]c1=O [Compound 138]
38 | 121 | CCc1cc2cc(C(=C3CCN(CCCn4c(=O)[nH]c5ccccc54)CC3)c3ccc4c(c3)OCCO4)ccc2[nH]c1=O [Compound 141]
39 | 322 | CCc1cc2cc(C(=C3CCN(C/C=C/c4ccccc4)CC3)c3ccc4c(c3)OCCO4)ccc2[nH]c1=O [Compound 142]
40 | 157 | CCc1cc2cc(C(=C3CCN(CC(O)COc4ccc(F)cc4)CC3)c3ccc4c(c3)OCCO4)ccc2[nH]c1=O (centres unmarked) [Compound 143]

Biological target: T1, PARP-1 enzyme
Assay: In vitro filtration assay for PARP-1 inhibitory activity
Format: biochemical
Details: nicked DNA activated PARP-1, [32P]-NAD, histones; read-out: In vitro filtration assay pIC50 (converted)
Description: Compounds of the present invention were tested in an in vitro filtration assay assessing PARP-1 activity (triggered in the presence of nicked DNA) by means of its histone poly (ADP-ribosyl)ation activity using [^32P]-NAD as ADP-ribosyl donor. The radioactive ribosylated histones were precipitated by trichloroacetic acid (TCA) in 96-well filterplates and the incorporated [^32P] measured using a scintillation counter
A mixture of histones (stock solution: 5 mg/ml in H2O), NAD (stock solution: 100 mM in H2O), and [^32P]-NAD^+ in incubation buffer (50 mM Tris/HCl, pH 8; 0.2 mM DTT; 4 mM MgCl2) was made. A mixture of the PARP-1 enzyme (5-10 μg/ml) and nicked DNA was also made. The nicked DNA was prepared as described in the in vitro SPA for PARP-1 inhibitory activity. Seventy-five μl of the PARP-1 enzyme/DNA mixture together with 1 μl of compound in DMSO and 25 μl of histones-NAD^+/[^32P]-NAD^+ mixture was added per well of a 96-well filterplate (0.45 μm, supplier Millipore). The final concentrations in the incubation mixture were 2 μg/ml for the histones, 0.1 mM for the NAD^+, […] (0.5 μC) for the [^32P]-NAD^+ and 2 μg/ml for the nicked DNA. Plates were incubated for 15 min. at room temperature and the reaction was terminated by the addition of 10 μl ice cold 100% TCA followed by the addition of 10 μl ice-cold BSA solution (1% in H2O). The protein fraction was allowed to precipitate for 10 min. at 4° C. and plates were vacuum filtered. The plates were subsequently washed with, for each well, 1 ml of 10% ice cold TCA, 1 ml of 5% ice cold TCA and 1 ml of 5% TCA at room temperature. Finally 100 μl of scintillation solution (Microscint 40, Packard) was added to each well and the plates were transferred to a TopCountNXT™ (supplier: Packard) for scintillation counting and values were expressed as counts per minute (cpm). For each experiment, controls (containing PARP-1 enzyme and DMSO without compound), a blank incubation (containing DMSO but no PARP-1 enzyme or compound) and samples (containing PARP-1 enzyme and compound dissolved in DMSO) were run in parallel. All compounds tested were dissolved and eventually further diluted in DMSO. In first instance, compounds were tested at a concentration of 10^−5M. […] In each test, the blank value was subtracted from both the control and the sample values. The control sample represented maximal PARP-1 enzyme activity. For each sample, the amount of cpm was expressed as a percentage of the mean cpm value of the controls. When appropriate, IC50-values (concentration of the drug, needed to reduce the PARP-1 enzyme activity to 50% of the control) were computed using linear interpolation between the experimental points just above and below the 50% level. Herein the effects of test compounds are expressed as pIC50 (the negative log value of the IC50-value). As a reference compound, 4-amino-1,8-naphthalimide was included to validate the filtration assay.

Row | IC50 [µM] | Structure (SMILES)
41 | 7.33 | Cc1cc2cc(C(NC(=O)NCCCN3CCCCC3)c3ccccc3)ccc2[nH]c1=O (centres unmarked) [Compound 7]
42 | 2.39 | Cc1cc2cc(C(c3ccccc3)c3cncn3C)ccc2[nH]c1=O (centres unmarked) [Compound 10]
43 | 2.11 | CCc1cc2cc(C(c3ccccc3)N3CCC(NCCOC)CC3)ccc2[nH]c1=O (centres unmarked) [Compound 13]
44 | 3.27 | Cc1cc2cc(C(NCCCc3cccs3)c3ccccc3)ccc2[nH]c1=O (centres unmarked) [Compound 23]
45 | 7.59 | Cc1cc2cc(C(NCCCn3cccc3)c3ccccc3)ccc2[nH]c1=O (centres unmarked) [Compound 24]
46 | 3.9 | CC(=O)NCCNC(c1ccccc1)c1ccc2[nH]c(=O)c(C)cc2c1 (centres unmarked) [Compound 25]
47 | 0.918 | CCc1cc2cc(C(NCCCN3CCCCC3)c3ccccc3)ccc2[nH]c1=O (centres unmarked) [Compound 26]
